Laboratory results: ChEMBL document CHEMBL1201862, “PubChem BioAssay data set” (2004)
The source made the active and inactive calls.

What was measured:
[1] = molecular target: FAD-linked sulfhydryl oxidase ALR (Homo sapiens, UniProt P55789); assay: ALR-catalysed DTT oxidation blockers – biochemical, H2O2 detection, luminescence, cherry-pick, dose response (AID 493248)
[2] = test system: Streptococcus sp. 'group A'; assay: Streptococcus pyogenes SK(-)GAS viability under kanamycin – luminescence, BacTiterGlo, confirmation, counter-screen for streptokinase expression inhibitor project, dose response (AID 1900); format: functional, organism-based
[3] = NIH3T3 cell viability loss – ATP luminescence, mouse fibroblasts, counter-screen, dose response (AID 2010); format: functional, cell-based;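 further: cells exposed to compound for about 90 hours before reading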
[4] = Trypanosoma cruzi growth suppression in host cells – NIH3T3 host cells, beta-gal luminescence, confirmation (AID 2044); format: functional, cell-based;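 further: intracellular parasites grown in NIH/3T3 mouse fibroblasts as host cells; luminescent beta-galactosidase reporter signal from transgenic T. cruzi replicating inside host cells; inhibitors lower the luminescence signal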
Streptococcus = assay: GAS UMAA2166 growth inhibition – luminescence, BacTiterGlo, counter-screen for streptokinase expression inhibitor project, dose response (AID 1915); format: functional, organism-based;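 further: potency for reduction of bacterial viability or growth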
Streptokinase A = molecular target: T1, Streptokinase A (Streptococcus pyogenes serotype M1, UniProt P10520); assay: viability-normalized secreted streptokinase activity reduction – plasminogen activation absorbance, OD405, dose response (AID 1914); format: functional, Streptococcus pyogenes M1 GAS;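 further: secreted streptokinase activity via plasminogen activation per viability signal from cell pellet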
T1 sequence (P10520 whole entry): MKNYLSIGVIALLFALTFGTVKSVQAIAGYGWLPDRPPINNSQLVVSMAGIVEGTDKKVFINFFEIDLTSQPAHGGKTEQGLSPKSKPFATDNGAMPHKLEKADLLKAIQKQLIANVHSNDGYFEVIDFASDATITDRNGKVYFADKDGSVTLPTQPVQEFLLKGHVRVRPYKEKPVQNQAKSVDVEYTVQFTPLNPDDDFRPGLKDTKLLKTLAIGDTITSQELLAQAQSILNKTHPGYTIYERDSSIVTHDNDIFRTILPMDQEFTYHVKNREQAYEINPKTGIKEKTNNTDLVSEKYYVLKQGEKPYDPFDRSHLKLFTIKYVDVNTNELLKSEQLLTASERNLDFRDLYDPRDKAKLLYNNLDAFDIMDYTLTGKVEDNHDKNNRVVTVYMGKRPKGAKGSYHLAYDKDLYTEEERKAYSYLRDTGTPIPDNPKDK

Protein skinhead-1 = molecular target: T2, Protein skinhead-1 (Caenorhabditis elegans, UniProt P34707); format: functional
T2 sequence (P34707 whole entry): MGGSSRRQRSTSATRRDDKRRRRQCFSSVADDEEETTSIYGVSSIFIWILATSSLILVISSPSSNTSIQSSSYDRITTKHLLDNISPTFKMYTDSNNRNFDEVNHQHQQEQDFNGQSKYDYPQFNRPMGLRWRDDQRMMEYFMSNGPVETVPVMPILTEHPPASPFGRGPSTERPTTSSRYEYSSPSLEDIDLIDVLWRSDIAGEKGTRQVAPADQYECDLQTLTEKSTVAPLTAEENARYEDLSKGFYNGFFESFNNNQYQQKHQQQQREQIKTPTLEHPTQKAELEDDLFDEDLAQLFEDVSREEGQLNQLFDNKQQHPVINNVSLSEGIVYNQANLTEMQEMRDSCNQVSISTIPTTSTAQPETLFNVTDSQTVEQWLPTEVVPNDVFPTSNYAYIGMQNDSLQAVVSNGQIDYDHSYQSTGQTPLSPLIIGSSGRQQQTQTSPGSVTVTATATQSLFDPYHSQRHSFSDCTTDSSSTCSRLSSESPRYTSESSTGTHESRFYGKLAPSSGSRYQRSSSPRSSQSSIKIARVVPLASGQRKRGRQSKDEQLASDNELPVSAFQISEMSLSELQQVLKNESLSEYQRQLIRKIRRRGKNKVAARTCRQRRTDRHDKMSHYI

Cytochrome P450 1A2 = molecular target: T3, Cytochrome P450 1A2 (Homo sapiens, UniProt P05177);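 further: PubChem cytochrome P450 panel assay, CYP1A2 panel member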
T3 sequence (P05177 whole entry): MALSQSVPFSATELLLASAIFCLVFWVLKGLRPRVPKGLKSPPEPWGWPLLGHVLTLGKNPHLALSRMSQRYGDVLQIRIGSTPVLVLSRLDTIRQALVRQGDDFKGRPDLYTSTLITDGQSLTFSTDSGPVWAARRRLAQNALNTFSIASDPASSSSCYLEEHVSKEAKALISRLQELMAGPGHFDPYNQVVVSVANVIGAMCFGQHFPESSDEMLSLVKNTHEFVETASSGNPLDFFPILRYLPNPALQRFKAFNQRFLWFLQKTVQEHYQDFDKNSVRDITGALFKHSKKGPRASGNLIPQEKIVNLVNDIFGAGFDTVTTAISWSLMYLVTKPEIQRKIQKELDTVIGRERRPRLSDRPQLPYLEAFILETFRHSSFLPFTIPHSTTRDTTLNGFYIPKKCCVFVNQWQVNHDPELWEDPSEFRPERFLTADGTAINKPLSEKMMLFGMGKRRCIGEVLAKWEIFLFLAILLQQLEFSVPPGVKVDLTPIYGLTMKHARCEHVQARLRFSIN

Cytochrome P450 2C9 = Cytochrome P450 2C9 (Homo sapiens, UniProt P11712)
Cytochrome P450 2C9, sequence (P11712 whole entry): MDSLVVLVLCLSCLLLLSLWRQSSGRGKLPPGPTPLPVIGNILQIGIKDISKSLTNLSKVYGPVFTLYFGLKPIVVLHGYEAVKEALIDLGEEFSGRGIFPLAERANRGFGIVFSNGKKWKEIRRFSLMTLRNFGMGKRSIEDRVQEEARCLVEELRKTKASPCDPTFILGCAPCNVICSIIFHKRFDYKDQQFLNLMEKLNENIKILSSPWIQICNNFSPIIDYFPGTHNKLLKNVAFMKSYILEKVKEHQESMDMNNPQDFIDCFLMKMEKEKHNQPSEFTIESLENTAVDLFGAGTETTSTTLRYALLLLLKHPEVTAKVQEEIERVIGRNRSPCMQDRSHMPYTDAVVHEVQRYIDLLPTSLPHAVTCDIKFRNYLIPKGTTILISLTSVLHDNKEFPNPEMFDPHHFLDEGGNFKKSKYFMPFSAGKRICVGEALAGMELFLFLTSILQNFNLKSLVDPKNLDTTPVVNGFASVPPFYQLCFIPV

H4 = assay: Luminescence Cell-Based Dose Response HTS to Identify Activators of 5'UTR Stem-Loop Driven Prion Protein mRNA Translation in H4 Neuroglioblastoma Cells. [Related pubchem assays: 1829 (Project Summary), 1814 (Primary HTS)]; format: functional; conditions: Homo sapiens
[5] = Luminescence Cell-Based Dose Response HTS to Identify Activators of Luciferase Translation or Activity in H4 […] Cells. [Related pubchem assays: 1829 (Project Summary), 1814 (Primary HTS)]; format: functional
[6] = molecular target: T4, Rac GTPase-activating protein 1 (Homo sapiens, UniProt Q9H0H5); assay: blockers of MgcRacGAP-driven Rac1 GTP hydrolysis – biochemical, ADP Hunter fluorescence, primary and confirmatory, confirmation (AID 624330); format: functional
T4 sequence (Q9H0H5 whole entry): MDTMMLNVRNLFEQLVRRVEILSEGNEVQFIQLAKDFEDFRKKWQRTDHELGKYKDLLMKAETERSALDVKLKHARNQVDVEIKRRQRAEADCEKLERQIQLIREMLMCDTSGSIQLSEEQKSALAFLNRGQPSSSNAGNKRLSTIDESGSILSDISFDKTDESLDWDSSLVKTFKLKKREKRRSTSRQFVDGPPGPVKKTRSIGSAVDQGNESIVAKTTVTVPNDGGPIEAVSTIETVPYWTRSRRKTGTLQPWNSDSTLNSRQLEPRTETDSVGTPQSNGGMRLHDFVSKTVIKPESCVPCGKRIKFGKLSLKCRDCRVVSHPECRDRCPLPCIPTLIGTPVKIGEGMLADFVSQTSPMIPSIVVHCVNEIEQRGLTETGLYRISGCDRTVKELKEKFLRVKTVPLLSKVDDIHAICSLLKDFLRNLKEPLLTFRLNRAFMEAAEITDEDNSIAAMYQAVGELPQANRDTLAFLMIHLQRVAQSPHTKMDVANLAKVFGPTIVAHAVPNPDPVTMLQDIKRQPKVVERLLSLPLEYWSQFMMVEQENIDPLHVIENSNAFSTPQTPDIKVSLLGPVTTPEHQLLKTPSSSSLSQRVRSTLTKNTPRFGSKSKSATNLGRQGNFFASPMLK

[7] = molecular target: T5, Zinc finger protein mex-5 (Caenorhabditis elegans, UniProt Q9XUB2); assay: potency of MEX-5 RNA-binding blockers – biochemical, C. elegans, fluorescence polarization, dose response (AID 1960)
T5 sequence (Q9XUB2 whole entry): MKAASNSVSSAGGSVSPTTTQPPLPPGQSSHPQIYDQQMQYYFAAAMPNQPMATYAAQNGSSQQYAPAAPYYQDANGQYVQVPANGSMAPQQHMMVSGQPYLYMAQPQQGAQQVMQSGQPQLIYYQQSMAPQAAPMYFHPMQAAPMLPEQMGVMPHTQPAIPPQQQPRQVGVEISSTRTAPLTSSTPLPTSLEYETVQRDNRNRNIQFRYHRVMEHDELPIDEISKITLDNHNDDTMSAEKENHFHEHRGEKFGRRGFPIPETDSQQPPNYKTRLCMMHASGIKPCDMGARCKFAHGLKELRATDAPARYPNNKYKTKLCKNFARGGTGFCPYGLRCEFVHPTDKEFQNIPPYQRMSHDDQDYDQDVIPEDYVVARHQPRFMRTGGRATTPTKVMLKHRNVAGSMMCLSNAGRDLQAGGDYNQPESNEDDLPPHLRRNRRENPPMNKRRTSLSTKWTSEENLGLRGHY

[8] = molecular target: T6, RNA-binding protein pos-1 (Caenorhabditis elegans, UniProt G5EF15); assay: disruptors of C. elegans POS-1 RNA interaction – biochemical, fluorescence polarization, dose response (AID 1964);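 further: purified POS-1 fused to maltose binding protein made in E. coli; potency of compounds blocking POS-1 binding to fluorescent RNA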
T6 sequence (G5EF15 whole entry): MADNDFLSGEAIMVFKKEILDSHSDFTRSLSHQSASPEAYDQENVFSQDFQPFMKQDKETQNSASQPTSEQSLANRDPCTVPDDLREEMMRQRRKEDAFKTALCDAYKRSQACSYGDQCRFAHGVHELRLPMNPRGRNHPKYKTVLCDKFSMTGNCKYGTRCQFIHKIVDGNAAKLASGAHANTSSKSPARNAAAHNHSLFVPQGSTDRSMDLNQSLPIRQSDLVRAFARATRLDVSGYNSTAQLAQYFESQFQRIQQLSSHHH

Cytochrome P450 2C19 = Cytochrome P450 2C19 (Homo sapiens, UniProt P33261); assay: Cytochrome panel assay with activity outcomes. Panel member name: p450-cyp2c19 Compounds with AC50 equal or less than 10 uM are considered active; format: functional; conditions: read-out: AC50
Cytochrome P450 2C19, sequence (P33261 whole entry): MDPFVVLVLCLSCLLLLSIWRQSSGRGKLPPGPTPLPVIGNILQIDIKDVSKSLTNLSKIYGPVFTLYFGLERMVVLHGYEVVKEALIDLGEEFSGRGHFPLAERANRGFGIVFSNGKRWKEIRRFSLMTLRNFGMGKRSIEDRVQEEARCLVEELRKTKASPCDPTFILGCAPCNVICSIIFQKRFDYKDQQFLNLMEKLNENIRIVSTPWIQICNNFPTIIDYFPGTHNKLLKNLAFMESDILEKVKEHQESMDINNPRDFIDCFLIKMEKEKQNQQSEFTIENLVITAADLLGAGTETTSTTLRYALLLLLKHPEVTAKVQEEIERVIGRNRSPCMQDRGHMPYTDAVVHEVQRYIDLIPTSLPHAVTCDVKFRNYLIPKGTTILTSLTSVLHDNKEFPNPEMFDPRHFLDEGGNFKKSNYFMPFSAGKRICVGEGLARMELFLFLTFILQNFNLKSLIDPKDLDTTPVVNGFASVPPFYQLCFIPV

Cytochrome P450 2D6 = Cytochrome P450 2D6 (Homo sapiens, UniProt P10635);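 further: CYP2D6 member of a cytochrome P450 panel assay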
Cytochrome P450 2D6, sequence (P10635 whole entry): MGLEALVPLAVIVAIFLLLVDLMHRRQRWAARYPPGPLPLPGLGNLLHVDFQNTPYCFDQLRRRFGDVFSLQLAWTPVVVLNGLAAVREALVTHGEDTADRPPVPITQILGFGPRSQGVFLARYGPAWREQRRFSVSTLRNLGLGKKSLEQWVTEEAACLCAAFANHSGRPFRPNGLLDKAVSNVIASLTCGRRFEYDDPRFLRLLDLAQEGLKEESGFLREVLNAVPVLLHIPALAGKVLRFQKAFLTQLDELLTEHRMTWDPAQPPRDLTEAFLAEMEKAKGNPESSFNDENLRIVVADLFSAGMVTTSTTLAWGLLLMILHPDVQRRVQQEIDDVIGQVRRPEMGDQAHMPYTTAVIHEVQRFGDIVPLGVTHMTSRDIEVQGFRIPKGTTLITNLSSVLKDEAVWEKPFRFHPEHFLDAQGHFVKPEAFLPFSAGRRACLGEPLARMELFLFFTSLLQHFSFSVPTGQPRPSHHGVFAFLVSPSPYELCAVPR

FAD-linked sulfhydryl oxidase ALR, sequence (P55789 whole entry): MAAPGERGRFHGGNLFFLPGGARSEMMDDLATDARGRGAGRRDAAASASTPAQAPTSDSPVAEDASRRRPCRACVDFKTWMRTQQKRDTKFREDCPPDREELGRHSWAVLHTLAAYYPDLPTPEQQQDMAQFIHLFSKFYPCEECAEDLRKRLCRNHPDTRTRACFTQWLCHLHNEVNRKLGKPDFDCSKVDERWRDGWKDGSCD

Cn1cnc2cc(NCc3ccc(Cl)cc3)ccc21
AC50 [1]: 5.49 µM (active)

COc1cccc(N/N=C/c2cccc(Br)c2O)c1
EC50 [2]: 12.5 µM (active) | EC50 [3]: > 60 µM (not active) | EC50 [4]: 3.27 µM (active) | EC50 (Streptococcus): > 150 µM (not active) | AC50 [1]: 1.67 µM (active) | EC50 (Streptokinase A): 19.6 µM (active)

N#CC1=C(N)n2c(s/c(=C\c3cccs3)c2=O)=C(C#N)C1c1cccs1 (stereo unspecified)
AC50 [1]: 5.68 µM (active)

COC(=O)[C@H](Cc1ccccc1)NC(=O)N1CCN(c2ccccc2)CC1
AC50 [1]: 6.26 µM (active)

O=S1(=O)C=C(Oc2ccc3ccccc3c2)c2ccccc21
IC50 (Protein skinhead-1): > 100 µM (inactive)

COc1ccc(-c2nnn(CC(=O)N(CC(=O)NCCC(C)C)Cc3cccs3)n2)cc1OC
AC50 (Cytochrome P450 1A2): 31.6 µM (inconclusive) | AC50 (Cytochrome P450 2C9): 7.08 µM (inconclusive)

COc1ccc(C2(CNC(=O)/C=C/c3ccco3)CCCC2)cc1OC
AC50 (Cytochrome P450 1A2): 22.4 µM (inconclusive) | AC50 (Cytochrome P450 2C9): 10 µM (inconclusive)

Nc1ccc2c(Cl)cc(Cl)cc2c1
IC50 (Protein skinhead-1): 22.7 µM (active)

Cc1ccc(NC(=O)CCOc2ccccc2)cc1
EC50 (H4): > 120 µM (not active) | EC50 [5]: 92.6 µM (active)

CC(NC(=O)c1ccc(N2CCCC2)c([N+](=O)[O-])c1)c1ccc(S(N)(=O)=O)cc1 (stereo unspecified)
AC50 [1]: 3.51 µM (active)

Cc1ccc(-c2nc(N/N=C/c3ccccc3[N+](=O)[O-])c3ccccc3n2)cc1
EC50 (H4): 0.595 µM (active)

CCN(CC)c1ccc(NC(=O)CN2CCN(c3ccccn3)CC2)cc1
IC50 [6]: 131 µM (active) | AC50 [1]: 0.384 µM (active)

Cc1ccc2c(c1)c(C)c(C)n2CC(O)CN1CCOCC1 (stereo unspecified)
IC50 (Protein skinhead-1): > 100 µM (inactive)

Cc1cccc(C(=O)N(Cc2cccs2)C2CCS(=O)(=O)C2)c1 (stereo unspecified)
IC50 (Protein skinhead-1): > 100 µM (inactive)

O=C(c1cc(COc2ccc(F)cc2Cl)on1)N1CCCCCC1
IC50 (Protein skinhead-1): > 100 µM (inactive)

CCc1ccc(CNc2ccc(N3CCN(C(C)=O)CC3)cc2)cc1
IC50 [6]: 9.44 µM (active) | AC50 [1]: 0.445 µM (active)

O=C(Nc1nccs1)c1ccc(-c2ccc([N+](=O)[O-])cc2)o1
EC50 [7]: 6.66 µM (active) | EC50 [8]: 12.3 µM (inconclusive)

O=C(N/N=C/c1ccc2nccnc2c1)c1ccccc1O
EC50 (H4): 44.2 µM (active) | EC50 [5]: 48.8 µM (active)

O=C(c1ccco1)N1CCC2(CCCN(C(c3ccccc3)c3ccccc3)C2)CC1
AC50 (Cytochrome P450 1A2): 15.8 µM (inconclusive) | AC50 (Cytochrome P450 2C19): 39.8 µM (inconclusive)

COc1cccc(-c2cccc(NC(=O)C3CCN(CC4CCOC4)CC3)c2)c1 (stereo unspecified)
IC50 (Protein skinhead-1): > 100 µM (inactive)

COc1cc(C)cc2c(-c3c(O)cc(O)c4c3C[C@H](C)N[C@@H]4C)cc(-c3cc(-c4c(O)cc(O)c5c4C[C@H](C)N[C@@H]5C)c4cc(C)cc(OC)c4c3O)c(O)c12
AC50 (Cytochrome P450 1A2): 0.2 µM (inconclusive) | AC50 (Cytochrome P450 2D6): 5.01 µM (inconclusive)

O=C(CN1CCN(S(=O)(=O)c2ccc(F)cc2)CC1)Nc1ccc2c(c1)OCO2
AC50 (Cytochrome P450 1A2): 25.1 µM (inconclusive) | AC50 (Cytochrome P450 2C9): 11.2 µM (inconclusive) | AC50 (Cytochrome P450 2C19): 3.98 µM (inconclusive) | AC50 (Cytochrome P450 2D6): 5.01 µM (inconclusive)

Cc1cc(O)c(C(C)C)cc1NC(=O)Nc1ccc([N+](=O)[O-])cc1
IC50 (Protein skinhead-1): 68.4 µM (inactive)

COc1ccc(N2CCN(C(=O)Cc3cccs3)CC2)cc1
AC50 [1]: 2.36 µM (active)

CCC(C)Nc1nc2c(c(=O)n(C)c(=O)n2C)n1Cc1cccc(C)c1 (stereo unspecified)
AC50 [1]: 8.61 µM (active)

CCCC(C)C(=O)NCc1ccccc1OC (stereo unspecified)
IC50 (Protein skinhead-1): > 100 µM (inactive)

Cc1cccc(NC(=O)c2cccc(N3C(=O)C4C5CCC(C5)C4C3=O)c2)c1C (stereo unspecified)
AC50 (Cytochrome P450 1A2): 25.1 µM (inconclusive) | AC50 (Cytochrome P450 2C9): 22.4 µM (inconclusive)

CCOc1cc2c(cc1/C=C(/C#N)c1ccc(C(=O)O)cc1)OCO2
EC50 [7]: > 300 µM (not active) | EC50 [8]: > 300 µM (not active)

COc1cc(/C=N/NC(=O)c2cccc([N+](=O)[O-])c2)cc(OC)c1O
AC50 [1]: 2.04 µM (active)

CCOC(=O)c1c(NC(=O)CCC(=O)N2CCOCC2)sc2c1CC(C)(C)OC2
AC50 (Cytochrome P450 1A2): 15.8 µM (inconclusive) | AC50 (Cytochrome P450 2C9): 0.00562 µM (inconclusive) | AC50 (Cytochrome P450 2C19): 0.224 µM (inconclusive)
